Measured values reported in PubChem BioAssay AID2060896 (Molecular Pharmacology Branch, DTP, NCI, 2025).

System: 941728-121-R-J1-PDC complex spheroid viability
Assay: Anticancer human tumor 941728-121-R-J1-PDC patient-derived lung adenocarcinoma cell line growth inhibition [RAS]
Settings: for IC50: curve of first compound; for viability, T/C: stronger effect = lower value
Procedure, shortened: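 Agents were tested in combination matrices in half-log decrements from a top concentration at or near clinical Cmax (10 microM if undetermined). Targets were multi-cell spheroids of tumour lines plus HUVEC and MSC stromal cells.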

[1] = second compound 0.000949 µM, first compound 0.0316 µM
[2] = second compound 0.000949 µM, first compound 0.1 µM
[3] = second compound 0.000949 µM, first compound 0.316 µM
[4] = second compound 0.000949 µM, first compound 1 µM
[5] = second compound 0.000949 µM, first compound 3.16 µM
[6] = second compound 0.000949 µM, first compound 10 µM
[7] = second compound 0.003 µM, first compound 0.0316 µM
[8] = second compound 0.003 µM, first compound 0.1 µM
[9] = second compound 0.003 µM, first compound 0.316 µM
[10] = second compound 0.003 µM, first compound 1 µM
[11] = second compound 0.003 µM, first compound 3.16 µM
[12] = second compound 0.003 µM, first compound 10 µM
[13] = second compound 0.00949 µM, first compound 0.0316 µM
[14] = second compound 0.00949 µM, first compound 0.1 µM
[15] = second compound 0.00949 µM, first compound 0.316 µM
[16] = second compound 0.00949 µM, first compound 1 µM
[17] = second compound 0.00949 µM, first compound 3.16 µM
[18] = second compound 0.00949 µM, first compound 10 µM
[19] = second compound 0.03 µM, first compound 0.0316 µM
[20] = second compound 0.03 µM, first compound 0.1 µM
[21] = second compound 0.03 µM, first compound 0.316 µM
[22] = second compound 0.03 µM, first compound 1 µM
[23] = second compound 0.03 µM, first compound 3.16 µM
[24] = second compound 0.03 µM, first compound 10 µM
[25] = second compound 0.0949 µM, first compound 0.0316 µM
[26] = second compound 0.0949 µM, first compound 0.1 µM
[27] = second compound 0.0949 µM, first compound 0.316 µM
[28] = second compound 0.0949 µM, first compound 1 µM
[29] = second compound 0.0949 µM, first compound 3.16 µM
[30] = second compound 0.0949 µM, first compound 10 µM
[31] = second compound 0.3 µM, first compound 0.0316 µM
[32] = second compound 0.3 µM, first compound 0.1 µM
[33] = second compound 0.3 µM, first compound 0.316 µM
[34] = second compound 0.3 µM, first compound 1 µM
[35] = second compound 0.3 µM, first compound 3.16 µM
[36] = second compound 0.3 µM, first compound 10 µM
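Also: spheroids exposed to compounds for 7 days before readout.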
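For viability, T/C in this document: 100% = DMSO vehicle control viability.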

With CC(C)NCC(C(=O)N1CCN(c2ncnc3c2C(C)CC3O)CC1)c1ccc(Cl)cc1 (stereo unspecified) + CCn1c(-c2cc(N3CCN(C)CC3)cnc2C(C)OC)c2c3cc(ccc31)-c1csc(n1)CC(NC(=O)C1CC1C)C(=O)N1CCCC(N1)C(=O)OCC(C)(C)C2 the IC50 (second compound 0.000949 µM) was < 31.6 nM, the IC50 (second compound 0.003 µM) was < 31.6 nM and the IC50 (second compound 0.00949 µM) was < 31.6 nM. The IC50 (second compound 0.03 µM) was < 31.6 nM, the IC50 (second compound 0.0949 µM) was < 31.6 nM and the IC50 (second compound 0.3 µM) was < 31.6 nM. The viability, T/C [1] was 28.7%, the viability, T/C [2] was 28.3% and the viability, T/C [3] was 18.8%. For the same compound, the viability, T/C [4] was 20.1%, the viability, T/C [5] was 19% and the viability, T/C [6] was 10.4%. It also gave a viability, T/C [7] of 22.7%, a viability, T/C [8] of 23.5% and a viability, T/C [9] of 16.5%. For the same compound, the viability, T/C [10] was 20.5%, the viability, T/C [11] was 14.6% and the viability, T/C [12] was 8.01%. For the same compound, the viability, T/C [13] was 17.7%, the viability, T/C [14] was 14.9% and the viability, T/C [15] was 15.2%. For the same compound, the viability, T/C [16] was 12.3%, the viability, T/C [17] was 9.47% and the viability, T/C [18] was 5.47%. It also gave a viability, T/C [19] of 13.1%, a viability, T/C [20] of 14% and a viability, T/C [21] of 14.2%. The viability, T/C [22] was 11.3%, the viability, T/C [23] was 8.42% and the viability, T/C [24] was 4.92%. The viability, T/C [25] was 12.4%, the viability, T/C [26] was 13.6% and the viability, T/C [27] was 11.9%. The viability, T/C [28] was 12.1%, the viability, T/C [29] was 5.65% and the viability, T/C [30] was 5.14%. For the same compound, the viability, T/C [31] was 11.1%, the viability, T/C [32] was 14.2% and the viability, T/C [33] was 13.5%. For the same compound, the viability, T/C [34] was 10%, the viability, T/C [35] was 8.91% and the viability, T/C [36] was 4.65%.
With CC(C)n1nc(-c2ccc3oc(N)nc3c2)c2c(N)ncnc21 + CCn1c(-c2cc(N3CCN(C)CC3)cnc2C(C)OC)c2c3cc(ccc31)-c1csc(n1)CC(NC(=O)C1CC1C)C(=O)N1CCCC(N1)C(=O)OCC(C)(C)C2 the IC50 (second compound 0.000949 µM) was < 0.316 nM, the IC50 (second compound 0.003 µM) was < 0.316 nM and the IC50 (second compound 0.00949 µM) was < 0.316 nM. For the same compound, the IC50 (second compound 0.03 µM) was < 0.316 nM, the IC50 (second compound 0.0949 µM) was < 0.316 nM and the IC50 (second compound 0.3 µM) was < 0.316 nM. The viability, T/C (second compound 0.000949 µM, first compound 0.000316 µM) was 25.5%, the viability, T/C (second compound 0.000949 µM, first compound 0.001 µM) was 27.6% and the viability, T/C (second compound 0.000949 µM, first compound 0.00316 µM) was 18.6%. For the same compound, the viability, T/C (second compound 0.000949 µM, first compound 0.01 µM) was 20.2%, the viability, T/C [1] was 16.9% and the viability, T/C [2] was 11.1%. For the same compound, the viability, T/C (second compound 0.003 µM, first compound 0.000316 µM) was 24.6%, the viability, T/C (second compound 0.003 µM, first compound 0.001 µM) was 20.8% and the viability, T/C (second compound 0.003 µM, first compound 0.00316 µM) was 16%. For the same compound, the viability, T/C (second compound 0.003 µM, first compound 0.01 µM) was 14.4%, the viability, T/C [7] was 10.9% and the viability, T/C [8] was 8.48%. The viability, T/C (second compound 0.00949 µM, first compound 0.000316 µM) was 17.6%, the viability, T/C (second compound 0.00949 µM, first compound 0.001 µM) was 16% and the viability, T/C (second compound 0.00949 µM, first compound 0.00316 µM) was 16.3%. It also gave a viability, T/C (second compound 0.00949 µM, first compound 0.01 µM) of 11.6%, a viability, T/C [13] of 8.78% and a viability, T/C [14] of 5.45%. It also gave a viability, T/C (second compound 0.03 µM, first compound 0.000316 µM) of 13.4%, a viability, T/C (second compound 0.03 µM, first compound 0.001 µM) of 14.6% and a viability, T/C (second compound 0.03 µM, first compound 0.00316 µM) of 13.4%. The viability, T/C (second compound 0.03 µM, first compound 0.01 µM) was 10.7%, the viability, T/C [19] was 6.44% and the viability, T/C [20] was 6.86%. It also gave a viability, T/C (second compound 0.0949 µM, first compound 0.000316 µM) of 12.7%, a viability, T/C (second compound 0.0949 µM, first compound 0.001 µM) of 14.2% and a viability, T/C (second compound 0.0949 µM, first compound 0.00316 µM) of 12.8%. It also gave a viability, T/C (second compound 0.0949 µM, first compound 0.01 µM) of 11.6%, a viability, T/C [25] of 6.3% and a viability, T/C [26] of 6.4%. It also gave a viability, T/C (second compound 0.3 µM, first compound 0.000316 µM) of 13.4%, a viability, T/C (second compound 0.3 µM, first compound 0.001 µM) of 13.9% and a viability, T/C (second compound 0.3 µM, first compound 0.00316 µM) of 12.9%. For the same compound, the viability, T/C (second compound 0.3 µM, first compound 0.01 µM) was 11.2%, the viability, T/C [31] was 7.62% and the viability, T/C [32] was 7.03%.
With C[C@@H](NC(=O)c1ncnc(N)c1Cl)c1ncc(C(=O)Nc2cc(C(F)(F)F)c(Cl)cn2)s1 + CCn1c(-c2cc(N3CCN(C)CC3)cnc2C(C)OC)c2c3cc(ccc31)-c1csc(n1)CC(NC(=O)C1CC1C)C(=O)N1CCCC(N1)C(=O)OCC(C)(C)C2 the IC50 (second compound 0.000949 µM) was < 31.6 nM, the IC50 (second compound 0.003 µM) was < 31.6 nM and the IC50 (second compound 0.00949 µM) was < 31.6 nM. The IC50 (second compound 0.03 µM) was < 31.6 nM, the IC50 (second compound 0.0949 µM) was < 31.6 nM and the IC50 (second compound 0.3 µM) was < 31.6 nM. For the same compound, the viability, T/C [1] was 28.7%, the viability, T/C [2] was 30.9% and the viability, T/C [3] was 22.4%. It also gave a viability, T/C [4] of 34%, a viability, T/C [5] of 33.6% and a viability, T/C [6] of 24.5%. For the same compound, the viability, T/C [7] was 27.8%, the viability, T/C [8] was 24.4% and the viability, T/C [9] was 22.4%. It also gave a viability, T/C [10] of 24.9%, a viability, T/C [11] of 27.9% and a viability, T/C [12] of 20%. The viability, T/C [13] was 19.1%, the viability, T/C [14] was 15.5% and the viability, T/C [15] was 21.6%. For the same compound, the viability, T/C [16] was 21.9%, the viability, T/C [17] was 19.7% and the viability, T/C [18] was 17.9%. The viability, T/C [19] was 14.1%, the viability, T/C [20] was 16.5% and the viability, T/C [21] was 17.1%. For the same compound, the viability, T/C [22] was 15.4%, the viability, T/C [23] was 15.4% and the viability, T/C [24] was 14.9%. It also gave a viability, T/C [25] of 13.6%, a viability, T/C [26] of 15.7% and a viability, T/C [27] of 14.3%. The viability, T/C [28] was 14.3%, the viability, T/C [29] was 11.7% and the viability, T/C [30] was 13.6%. The viability, T/C [31] was 13.8%, the viability, T/C [32] was 13.7% and the viability, T/C [33] was 15.6%. It also gave a viability, T/C [34] of 13.8%, a viability, T/C [35] of 12.3% and a viability, T/C [36] of 11.9%.
